Experimental data taken from ChEMBL document CHEMBL1156377, “New cytotoxic N-methylated beta-carboline alkaloids from the marine ascidian Eudistoma gilboverde” (J Nat Prod, 2001).
≈ marks a conversion by molar mass, not a printed value.

Columns and labels:
Type in all cases: functional, cell-based
COLO 205 = experiment: Cytotoxicity against human COLO205 cells after 2 days; conditions: COLO 205, 48 h
OVCAR-3 = experiment: Cytotoxicity against human OVCAR-3 cells after 2 days; conditions: OVCAR-3, 48 h
MOLT-4 = experiment: Cytotoxicity against human MOLT4 cells after 2 days; conditions: MOLT-4, 48 h
[1] = Cytotoxicity against human LOX cells after 2 days; conditions: 48 h

Compound	IC50 (COLO 205) [µg/mL]	IC50 (OVCAR-3) [µg/mL]	IC50 (MOLT-4) [µg/mL]	IC50 [1] [µg/mL]
C[n+]1ccc2c(c1)[nH]c1cc(Br)c(O)cc12.[Cl-]	15.1	20	17.5	15.1
C[n+]1ccc2c(c1)[nH]c1ccc(O)c(Br)c12.[Cl-]	19.1	20	16.6	15
CSC[C@H](c1nccc2c1[nH]c1ccc(O)c(Br)c12)N(C)C	0.42 (≈ 1.1 µM)	0.98 (≈ 2.58 µM)	0.57 (≈ 1.5 µM)	0.41 (≈ 1.08 µM)
